In PMC11530130, “Peripherally restricted PICK1 inhibitor mPD5 ameliorates pain behaviors in murine inflammatory and neuropathic pain models” (JCI Insight, 2024):
Where “and” joins values, the source holds several entries; their conditions need not be identical. Equal entries are not always repeated. Where two headings read alike, the source gives them in different places.

Columns and labels:
[1] = test system: mice, spared nerve injury (SNI) model; assay type: in vivo, mouse; details: for von Frey paw withdrawal threshold, ipsilateral paw (Fig 7F): SNI mice, 10 umol/kg, individual animals
Protocol: (§1) solution (0.05 mg/kg) injected s.c. 30 min before surgery (10 μL/g). For surgery, mice were anaesthetised with ketamine (100 mg/kg, i.p.) and xylazine (10 mg/kg, i.p.) (volume 10 µL/g) with 100 μL of 1% xylocaine solution infiltrated at the site of the incision. The distal trifurcation of the sciatic nerve was identified, and the tibial and common peroneal branches were ligated with polypropylene nonabsorbable 6-0 sutures (Ethicon) and 1 mm was cut out, leaving the sural branch intact. The wound was closed with sutures, and the animals were allowed to recover and returned to their cages. Two subcutaneous injections of buprenorphine (0.05 mg/kg) were performed with an 8 to 12 hours delay decreasing pain due to the surgery […]
(§2) The remaining SNI pain experiments were performed in-house using the following procedure.
(§3) SNI surgery was performed on the left hindleg of C57BL/6J male and female mice (Janvier, France) under 2% isoflurane anaesthesia. Skin on the lateral surface was incised between hip and knee followed by lengthwise division of the biceps femoris muscle leading to exposure of the three branches of the sciatic nerve. Sural branch was left intact, while the peroneal and tibial branches were ligated with a single surgical knot and axotomized distally of the ligation.
(§4) Wounds were closed with surgical glue or medical clips and animals were monitored daily for signs of stress or discomfort, but in all cases recovered uneventfully. […]
(§5) The skin wound was closed with two medical clips (Michel Suture Clips, 7.5x1.75 mm, Angthos, 12040-01). Post-surgical analgesia included s.c. injection of 5 mg/kg carprofen (Carprosan vet, 50 mg/mL mixed 1:25 in sterile ddH2O, Dechra, Le Vet Beheer B.V., Netherlands, Batch: 050520) right after surgery and the […]
(§6) following day. […]
(§7) The test battery of the CIBP model was carried out 45 or 90 min after morphine and mPD5 administration respectively to accommodate the peak efficacy […]
(§8) Mechanically evoked pain (von Frey test).
(§9) Unless otherwise specified, von Frey occurred as described in the following. Animals were habituated to the experimental room for a minimum of 60 min before initiation of the experiment. Mechanical paw withdrawal threshold (PWT) was determined by von Frey measurements of both hind paws. Von Frey filaments ranging from 0.04 to 2 g (g = gram- […]
(§10) Filaments in ascending order were applied to the frontocentral plantar surface of the hind paws.
(§11) Mice were placed in PVC plastic boxes (11.5 cm x 14 cm) on a wire mesh and allowed minimum 20 min habituation prior of experiment initiation. Each von Frey hair was applied five times with adequate resting periods between each application and number of withdrawals recorded. The withdrawal threshold was determined as the von Frey filament eliciting at least three positive trials out of the five applications in two consecutive filaments. A positive trial was defined as sudden paw withdrawal, flinching and/or paw licking induced by the filament.
(§12) For the CIBP model, two habituation sessions were performed on separated days with mice placed in the von Frey equipment for 1-1.5 hours in the presence of the experimenter on day one and random von Frey pocking with the 0.6 g filament on day two. Von Frey monofilaments (North Coast Touch Test, North Coast Medical, Inc.) with target forces of 0.04g, 0.07g, 0.16g, […]
(§13) down method” (PWT=10Xf+kδ) starting with the 0.6 g filament. Positive response was defined as; withdrawal, shaking or grooming of paw following a 2-3 second stimulation. In case, of unclear response, stimulus was repeated after 10-15 seconds.
(§14) For the STZ model, the mechanical threshold response of the injected mice was measured with […]
(§15) injection of test compounds on day 14, mechanical threshold was measured at 1 hour, 2 hours, 4 hours and 6 hours and again on day 15. […]
(§16) Thermally evoked pain (Hargreaves test).
(§17) A baseline Hargreaves test was performed on day 0 before inflammatory pain was induced as described in section 2.13. In the Hargreaves test, the mouse was placed in a container on a glass […]

[2] = target: human serum albumin (HSA) (Homo sapiens, UniProt P02768); experiment: FIDA binding to human serum albumin
[3] = test system: PICK1-WT and PICK1-KO mice, SNI model; experiment: SNI model, von Frey, PICK1-WT and PICK1-KO mice; assay type: in vivo, mouse; details: for effect on mechanical hypersensitivity (PWT): s.c.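 As to von Frey paw withdrawal threshold, individual animals (Fig 5F): time points given in hours with 0 hours as the comparison point.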
Protocol: as §1, §2, §3, §4, §5, §6, §7, §8, §9, §10, §11, §12, §13, §14, §15, §16, §17

Chain of human serum albumin (HSA) (P02768 25-609): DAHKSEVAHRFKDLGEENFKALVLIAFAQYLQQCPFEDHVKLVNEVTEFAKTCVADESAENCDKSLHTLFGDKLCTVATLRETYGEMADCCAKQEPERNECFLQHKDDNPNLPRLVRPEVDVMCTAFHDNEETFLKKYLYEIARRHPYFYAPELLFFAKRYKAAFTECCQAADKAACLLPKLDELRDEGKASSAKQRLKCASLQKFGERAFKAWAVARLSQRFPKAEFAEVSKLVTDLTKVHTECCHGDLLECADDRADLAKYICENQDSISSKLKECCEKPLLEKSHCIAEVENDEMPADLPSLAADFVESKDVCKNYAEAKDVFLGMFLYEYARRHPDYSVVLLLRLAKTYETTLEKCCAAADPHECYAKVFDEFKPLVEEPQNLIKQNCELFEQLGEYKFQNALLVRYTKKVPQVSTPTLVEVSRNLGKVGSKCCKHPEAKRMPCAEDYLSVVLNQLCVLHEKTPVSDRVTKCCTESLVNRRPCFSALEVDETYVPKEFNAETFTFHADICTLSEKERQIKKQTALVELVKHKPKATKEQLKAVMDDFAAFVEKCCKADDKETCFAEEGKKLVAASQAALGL

`CCCCCCCCCCCCCC(=O)N(CCOCCOCCC(=O)N[C@@H](Cc1c[nH]cn1)C(=O)N[C@@H](Cc1c[nH]c2ccccc12)C(=O)N[C@@H](CC(C)C)C(=O)N[C@@H](CCCCN)C(=O)N[C@H](C(=O)O)C(C)C)CCOCCOCCC(=O)N[C@@H](Cc1c[nH]cn1)C(=O)N[C@@H](Cc1c[nH]c2ccccc12)C(=O)N[C@@H](CC(C)C)C(=O)N[C@@H](CCCCN)C(=O)N[C@H](C(=O)O)C(C)C` [mPD5, myristoyl-NPEG4-(HWLKV)2] was tested, and the “von Frey paw withdrawal threshold, ipsilateral paw (Fig 7F)” value ([1]; time point 8) was 0.16 (5×) and 0.4, the “von Frey paw withdrawal threshold, ipsilateral paw (Fig 7F)” value ([1]; time point 13) was 0.16 (5×) and 0.07 and the “von Frey paw withdrawal threshold, ipsilateral paw (Fig 7F)” value ([1]; time point BL (baseline)) was 1 (2×) and 1.4 (4×). The “von Frey paw withdrawal threshold, ipsilateral paw (Fig 7F)” value ([1]; time point D12 (before dosing)) was 0.16 (5×) and 0.07, the “effect on mechanical hypersensitivity (PWT)” value (“effect” below) ([1]; SNI, single s.c. administration, 8 hours after injection) was “no effect on mechanical hypersensitivity” and the “HSA species bound, from RH” value [2] was “binds to dimeric HSA”. For the same compound, the “effect” value ([3]; PICK1-KO mice following SNI surgery) was “no effect on mechanical hypersensitivity”, the “von Frey paw withdrawal threshold, individual animals (Fig 5F)” value ([3]; PICK1-KO, CONTRA, BL) was 1.4 (4×) and 2 (2×) and the “von Frey paw withdrawal threshold, individual animals (Fig 5F)” value ([3]; PICK1-KO, CONTRA, time 0) was 1 (3×) and 1.4 (3×). The “von Frey paw withdrawal threshold, individual animals (Fig 5F)” value ([3]; PICK1-KO, CONTRA, time 1) was 1.4 (3×) and 0.6 and 2 and 1, the “von Frey paw withdrawal threshold, individual animals (Fig 5F)” value ([3]; PICK1-KO, CONTRA, time 5) was 1 and 1.4 (3×) and 2 (2×) and the “von Frey paw withdrawal threshold, individual animals (Fig 5F)” value ([3]; PICK1-KO, injured side, BL) was 1.4 (4×) and 2 and 1. The “von Frey paw withdrawal threshold, individual animals (Fig 5F)” value ([3]; PICK1-KO, injured side, time 0) was 0.6 and 0.07 and 0.4 (2×) and 0.16 (2×), the “von Frey paw withdrawal threshold, individual animals (Fig 5F)” value ([3]; PICK1-KO, injured side, time 1) was 0.4 (2×) and 0.16 (3×) and 0.07 and the “von Frey paw withdrawal threshold, individual animals (Fig 5F)” value ([3]; PICK1-KO, injured side, time 5) was 0.16 (2×) and 0.07 (3×) and 0.4. For the same compound, the “von Frey paw withdrawal threshold, individual animals (Fig 5F)” value ([3]; PICK1-WT, CONTRA, BL) was 1 (2×) and 1.4 (4×), the “von Frey paw withdrawal threshold, individual animals (Fig 5F)” value ([3]; PICK1-WT, CONTRA, time 0) was 1.4 (4×) and 1 and 2 and the “von Frey paw withdrawal threshold, individual animals (Fig 5F)” value ([3]; PICK1-WT, CONTRA, time 1) was 1.4 (3×) and 1 (2×) and 2. The “von Frey paw withdrawal threshold, individual animals (Fig 5F)” value ([3]; PICK1-WT, CONTRA, time 5) was 1.4, the “von Frey paw withdrawal threshold, individual animals (Fig 5F)” value ([3]; PICK1-WT, injured side, BL) was 1 (2×) and 1.4 (3×) and 2 and the “von Frey paw withdrawal threshold, individual animals (Fig 5F)” value ([3]; PICK1-WT, injured side, time 0) was 0.07 (2×) and 0.16 (3×) and 0.4. The “von Frey paw withdrawal threshold, individual animals (Fig 5F)” value ([3]; PICK1-WT, injured side, time 1) was 1.4 (4×) and 1 (2×), the “von Frey paw withdrawal threshold, individual animals (Fig 5F)” value ([3]; PICK1-WT, injured side, time 5) was 0.6 (2×) and 0.4 (3×) and 1 and the “effect” value ([3]; WT littermates following SNI surgery) was “significantly reduced”.
